Reference: US12060408B2, “Screening assays, modulators and modulation of activation of Receptor for Advanced Glycation End-products (RAGE)” (Monash University, priority 2017, dated 2024)

What was measured:
isolated aortae = assay: Ex vivo exposure of isolated aortae to Ang II, expression of pro-atherogenic mediators by RT-PCR; parameters: species or system mouse; details: 1 μM
Procedure: At the end of each study period, thoracic and abdominal aortae were placed in TRIZOL, snap frozen and stored at −80° C. RNA extraction and cDNA synthesis was performed in aortic homogenates using the Trizol method. Gene expression of pro-atherogenic mediators including adhesion molecules, cytokines, inflammatory, oxidative stress and macrophage markers, were estimated in aortic homogenates by quantitative real-time RT-PCR, performed using the TaqMan system based on real-time detection of accumulated fluorescence (ABI Prism 7700, Perkin-Elmer Inc, PE Biosystems, Foster City, CA, USA). Gene expression was normalized to 18S mRNA and reported as fold change compared to the level of expression in untreated control mice/cells, which were given an arbitrary value of 1.
(§1) Ex Vivo Studies in Isolated Aortae
Aortae were isolated from apoE KO and AGER/apoE DKO mice, divided and placed in Krebs buffer and maintained at physiological pH by infusing carbogen gas (95% O2; 5% CO2) through the buffer at 37° C. Vessels (n=6/group) were then treated with Ang II (1 μM) for 4 hours. After which time, whole blood labelled with DilC18 (1:1000) was then perfused through the aorta at 0.12 ml/min. Images and videos of vessel wall-cell interactions were observed using a fluorescence microscope (Zeiss Discovery.V20), coupled to a digital camera ([…] ORCA-ER) and analysed with AxioVison software.

aortic endothelium = assay: Adherence of labelled leukocytes to aortae (dynamic flow assay); parameters: species or system mouse; details: ex vivo
Procedure: Adherence of Labelled Leukocytes to Aortae
After 1 week of a low sodium or normal sodium diet, apoE KO and AGER/apoE DKO animals were humanely killed and aortae were isolated, cleaned of fat and mounted in a vessel chamber primed with Krebs buffer and maintained at physiological pH by infusing carbogen gas (95% O2; 5% CO2) through the buffer at 37° C., as previously described. Whole blood labelled with DilC18 (1:1000) was then perfused through the aorta at 0.12 ml/min. As a positive control, vessels (n=6/group) were pre-treated with TNFα (4 ng/ml) for 4 hrs at 37° C. or Ang II (1 μM). Images and videos of vessel wall-cell interactions were acquired using a fluorescence microscope (Zeiss Discovery.V20), coupled to a digital camera ([…] ORCA-ER) and analysed with AxioVison software. Two to three frames were taken at each time point and the number of adherent cells per frame recorded.
as §1
Aortae were isolated from apoE KO and AGER/apoE DKO mice, divided and placed in Krebs buffer and maintained at physiological pH by infusing carbogen gas (95% O2; 5% CO2) through the buffer at 37° C. Vessels (n=6/group) were then treated with Ang II (1 μM) for 4 hours. […] Images and videos of vessel wall-cell interactions were observed using a fluorescence microscope (Zeiss Discovery.V20), coupled to a digital camera ([…] ORCA-ER) and analysed with AxioVison software.

angiotensin II (DRVYIHPF) [Ang II, cognate ligand of AT1R]
induction of atherogenic mediators (isolated aortae; aortae from AGER/apoE DKO mice): prevents | expression of pro-atherogenic mediators (isolated aortae; isolated aortae from apoE KO mice): increases | endothelial adhesiveness of primed leucocytes (aortic endothelium; aortae from AGER/apoE DKO mice, 1 μM): prevents | number of adherent leukocytes (aortic endothelium; aortae from apoE KO mice, 1 μM vs untreated): increased number of adherent leukocytes
